How the values were obtained:
[1] = target: T1, Dihydrofolate reductase (Homo sapiens, UniProt P00374); experiment: Inhibition of human DHFR in presence of DHF and NADPH by UV-vis spectrometry by Lineweaver-Burk plot analysis
T1 sequence (P00374 whole entry): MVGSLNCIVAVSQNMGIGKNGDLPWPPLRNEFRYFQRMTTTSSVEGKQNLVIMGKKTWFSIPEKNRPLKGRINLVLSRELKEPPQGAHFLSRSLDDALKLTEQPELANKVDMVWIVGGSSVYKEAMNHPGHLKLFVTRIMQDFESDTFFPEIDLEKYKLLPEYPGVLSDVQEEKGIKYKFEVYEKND

[2] = Inhibition of Escherichia coli DHFR
[3] = Inhibition of Lactobacillus casei DHFR; design: species or system Lacticaseibacillus casei
[4] = Selectivity index, ratio of Ki for Lactobacillus casei DHFR to Ki for human DHFR
[5] = Selectivity index, ratio of Ki for Escherichia coli DHFR to Ki for human DHFR
[6] = target: Bifunctional purine biosynthesis protein ATIC (Homo sapiens, UniProt P31939); experiment: Inhibition of AICAR transformylase (unknown origin)
Chain of Bifunctional purine biosynthesis protein ATIC (P31939 whole entry): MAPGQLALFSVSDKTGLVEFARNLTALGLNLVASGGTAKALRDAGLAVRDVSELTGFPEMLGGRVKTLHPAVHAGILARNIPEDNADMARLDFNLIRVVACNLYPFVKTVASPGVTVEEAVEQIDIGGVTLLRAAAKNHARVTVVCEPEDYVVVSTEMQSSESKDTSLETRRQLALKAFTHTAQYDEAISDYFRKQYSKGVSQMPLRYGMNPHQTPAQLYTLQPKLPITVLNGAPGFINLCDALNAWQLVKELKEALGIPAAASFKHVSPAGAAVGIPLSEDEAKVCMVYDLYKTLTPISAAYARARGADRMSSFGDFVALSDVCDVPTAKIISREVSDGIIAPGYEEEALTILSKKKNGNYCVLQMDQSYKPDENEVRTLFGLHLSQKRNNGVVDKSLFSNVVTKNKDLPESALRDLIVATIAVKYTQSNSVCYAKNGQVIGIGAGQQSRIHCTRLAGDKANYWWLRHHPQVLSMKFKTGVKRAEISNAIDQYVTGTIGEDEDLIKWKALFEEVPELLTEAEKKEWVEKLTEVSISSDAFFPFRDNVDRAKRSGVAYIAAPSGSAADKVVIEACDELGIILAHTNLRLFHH

Row | SMILES | Ki [1] [µM] | also measured
1 | COc1ccc2cc([C@H](C)C(=O)O)ccc2c1 [NAPROXEN] | 7000 | 
2 | Nc1ccnc(N)n1 [DIAMINOPYRIMIDINE] |  | Ki [2]: 1800 µM; Ki [3]: 1800 µM; Ratio Ki [4]: 10; Ratio Ki [5]: 10
3 | Nc1ccc(C(=O)N[C@@H](CCC(=O)O)C(=O)O)cc1 | 180 | 
4 | Cc1cccc(Nc2ccccc2C(=O)O)c1C [MEFENAMIC ACID] | 72 | 
5 | N=C(N)NC(=N)NCCc1ccccc1 [PHENFORMIN] | 140 | IC50 [2]: 170 µM
6 | O=C(O)c1cc(/N=N/c2ccc(S(=O)(=O)Nc3ccccn3)cc2)ccc1O [SULFASALAZINE] |  | Ki [6]: 22 µM
7 | CN(C)C(=N)NC(=N)N [METFORMIN] | 18000 | IC50 [2]: 17900 µM
8 | CC(C)Cc1ccc(C(C)C(=O)O)cc1 (configuration not stated) [IBUPROFEN] | 560 | 

Further lines, with some results ahead:

Row | Ki [1] [µM] | SMILES | also measured
9 | 1800 | CCc1cccc2c3c([nH]c12)C(CC)(CC(=O)O)OCC3 (configuration not stated) [ETODOLAC] | 
10 | 2800 | N[C@@H](Cc1c[nH]c2ccccc12)C(=O)O [TRYPTOPHAN] | IC50 [1]: 6500 µM
11 | 17000 | O=C(O)CNC(=O)c1ccccc1 [HIPPURIC ACID] | 
12 | 34 | O=C(O)c1cc(-c2ccc(F)cc2F)ccc1O [DIFLUNISAL] | 
13 | 48 | O=C(O)c1cc(-c2ccccc2)ccc1O | 
14 | 160 | O=C(O)Cc1ccccc1Nc1c(Cl)cccc1Cl [DICLOFENAC] | 
15 | 3400 | COc1ccc2cc([C@@H](C)C(=O)O)ccc2c1 | 
16 | 360 | O=C(O)CCC(=O)c1ccc(-c2ccccc2)cc1 [FENBUFEN] | 

Source: ChEMBL document CHEMBL4619782, “The Structural Basis for Nonsteroidal Anti-Inflammatory Drug Inhibition of Human Dihydrofolate Reductase” (J Med Chem, 2020)
